Here are results for 32 compounds from patent US20110212235A1, “ANTIMICROBIAL SALT SOLUTIONS FOR CHEESE PROCESSING APPLICATIONS” (priority 2006, published 2011).

What all share (assay type): cell-based
Experiment [1] has as its system L. monocytogenes. The experiment can be described thus: L. monocytogenes challenge in beef plant chill brine at 4° C. Particulars: after 4 hours at 4° C.; surfactant added to beef plant brine, approximately 17% sodium chloride. As for the experimental part:
(§1) 1. Inoculate a separate tube containing approximately 10 ml of Brain Heart infusion (BHI) broth with the following L. monocytogenes strains: H2446 (CDC Global Standard), Scott A (serotype 4b), 12243 (serotype 1/2a), and two strains isolated from the environment of a cooked meat and poultry facility, designated WP1, and WP4. Incubate the tubes at least 5 days at 7-10° C.+/−2° C. 2. Assume the growth to be 10^9 cfu/ml. Serially dilute each culture in cold (˜7° C.). Butterfield's Phosphate Buffered Water (PBW) to 10^8 cfu/ml (1:10). Since five cultures of L. monocytogenes are being used as a cocktail, begin the dilution series using 2.20 ml of each culture added to 99 ml of PBW. 3. Plate (−6, −7, −8) the diluted culture to get the starting count of the inoculum on Modified Oxford medium (MOX) using a thin agar overlay (TAL) technique (overlay with Trypticase Soy Agar [TSA]) to revive injured cells. 4. Add 1 ml of the diluted cocktail to 100 ml of cold test solution. 5. Mix the solutions well. 6. Determine the L. monocytogenes population at time 0 and 4 hours. Plate −1 (0.1 ml on 1 plate), −2, −3, and −4 dilutions using spread plates on MOX TAL with TSA. 7. Incubate the test solutions at test temperature for the duration of the experiment. 8. Incubate the MOX TAL with TSA plates at 20° C.+/−2° C. for 72+/−3 hours. Count representative colonies, which are black, and multiply by the dilution factor.
Several tests were carried out to determine the effectiveness of embodiments according to the invention in meat processing chill brines. In one experiment, brine was taken at the end of a production week from a brine chiller used in a ready to eat, cooked beef production line. The sodium chloride concentration in this brine was approximately 17%. Samples of the brine with and without added surfactant were inoculated with a cocktail of L. monocytogenes as per the procedure described above, incubated at 4° C. for four hours, and then plated to determine L. monocytogenes survival.

In experiment [2] the test system is Escherichia coli ATCC 11229. The experiment can be described thus: E. coli kill in acid/SLS solutions with and without salt. Particulars: for % Kill of E. Coli: 0.6409 grams malic acid and 0.0107 grams sodium lauryl sulfate per liter, with 107.0 grams of the listed salt or without; for kill of E. coli by solution containing only the salt: only the salt and no other ingredient. As for the experimental part:
Ten percent by weight solutions were prepared of a formula of 0.6% citric or malic acid, 100 ppm SLS, and 99.4% sodium chloride. Solutions were also prepared containing an identical concentration of acid and SLS but no sodium chloride. […] A 1.0 ml aliquot of this suspension was added to 100 ml of test solution at room temperature and mixed well, providing an initial inoculum of 10^3 CFU/ml. After 30 minutes, the E. coli populations were enumerated by plating on tryptic soy agar (TSA), making serial dilutions as necessary in BPBW. Plates were incubated at 35° C.+/−2° C. for approximately 24 hours. Colonies were then counted and compared to the initial inoculum counts.
A test was run to determine if salts other than sodium chloride would show a synergistic antimicrobial effect with an acid and sodium lauryl sulfate. Solutions containing 0.6409 grams malic acid and 0.0107 grams sodium lauryl sulfate per liter were prepared with and without 107.0 grams of various salts (added on an anhydrous basis). Solutions were inoculated with E. coli described above and the amount of bacterial kill was measured to determine if the added salt caused an increase in the effectiveness of the acid/surfactant active ingredients.

For experiment [3], the system named is L. monocytogenes. The experiment can be described thus: L. monocytogenes kill in cold salt/acid/surfactant solutions. Particulars: for L. monocytogenes, Time 4 Hours / L. monocytogenes, Time 0: cold; for Population at 4 hours: concentrations stated in the solution, no added acid, average of two runs where starred. As to the method:
To study chilling brine application of the current embodiment, tests were run on 17% by weight solutions of formulas consisting of between 0.3% and 6.0% citric acid, between 50 and 500 ppm SLS, and between 94% and 99.7% sodium chloride. Test solutions were cooled to −7° C. and inoculated with several strains of L. monocytogenes.
An experiment was run to determine if solutions containing sodium chloride, sodium lauryl sulfate, and various acids would kill L. monocytogenes at cold temperatures. […] A 1.0 ml aliquot of this suspension was added to 100 ml of cold (−7° C.+2° C.) test solution and mixed well, providing an initial inoculum of 10^3 CFU/ml. The test solutions were incubated at −7° C.+/−2° C. for the duration of the experiment. At intervals of 0, 4, and 24 hours the L. monocytogenes populations in the test solutions were determined on Modified Oxford agar (MOX). MOX plates were incubated at 35° C.+/−2° C. for approximately 48 hours. Colonies were then counted and compared to the initial inoculum counts.
Each test solution was a 17% by weight solution of the listed formula prepared in soft water.
In another experiment, 17% by weight solutions of formulas containing various levels of sodium chloride, citric acid, and sodium lauryl sulfate were tested for effectiveness in killing L. monocytogenes at cold temperatures. The same test procedure was used as described above, except test solutions were plated on MOX with a Thin Agar Overlay of TSA (to aid in the recovery of injured cells).
In another experiment, two sets of solutions were tested. The first set (samples 1-12 in Table 10 below) was prepared in hard tap water and contained about 17.0% by mass of the formulation. These samples were inoculated with 10^3 CFU/ml L. monocytogenes by the same procedure as described above. A second set of samples was prepared from brine taken from a ready-to-eat meat processing operation. The recirculated brine had been used to chill packaged meat for one week. After a week of use the brine typically contains various types of aerobic psychotropic and mesophilic bacteria. This experiment was done in order to determine if the additives would kill the microorganisms naturally occurring in actual process brine from a plant. Since the spent chill brine samples already contained NaCl citric acid and/or SLS was added to provide an effective concentration of additive. One set of these samples (samples 13-17) were inoculated with 10^3 L. monocytogenes and the other set (samples 18-22) contained only the naturally occurring organisms in the spent chill brine. […] Other antimicrobials, such as quaternary ammonium compounds can lose significant activity in hard water, often necessitating further additives, such as EDTA as a chelating agent, to maintain antimicrobial activity.
Another set of experiments was done in order to determine the effectiveness of different acids and different types of surfactants in the antimicrobial salt formulations. In one experiment, test solutions containing ˜17% by weight of formulas containing various levels of sodium chloride, 100 ppm sodium lauryl sulfate, and various levels of different acids were tested for effectiveness in killing L. monocytogenes at cold temperatures. The same test procedure was used as described above (test solutions were plated on MOX TAL (Modified Oxford Medium with a Thin Agar Layer) with TSA). The controls were a solution of pure NaCl, a solution of a blend of 100 ppm SLS in NaCl, and a solution of a blend of 0.5% citric acid, 100 ppm SLS, and 99.5% NaCl.

Experiment [4] relates to L. monocytogenes. Nature of the experiment: L. monocytogenes cocktail challenge of surfactant/salt solutions at 2° C. Conditions: after 4 hours in solution at 2° C. As for the experimental part: Tests were generally run according to the following procedure:
as §1

Setting [5] is: 17% by weight of formula of 99.7% sodium chloride, 0.3% citric acid, 500 ppm of listed surfactant.
The mark [6] stands for this setting: Table 2, different salts and salt concentrations.

Marks after values point to notes of the source that are not given here.

Regarding “fatty alkanolaminde [12.5 ppm fatty alkanolaminde]”, the L. mono count in experiment [1] stood at 40 cfu/mL.

With `[Cl-].[K+]` [Potassium chloride], in experiment [2], the “% Kill of E. Coli” value worked out at 18% and the “kill of E. coli by solution containing only the salt” value is on record as “no bacterial kill”.

Take `[Cl-].[Na+]` [sodium chloride, reference compound]: the “log reduction of the L. monocytogenes over a 24-hour period” value in experiment [3] (brine of sodium chloride alone, 24-hour period) is given as under 1 log. The “% Kill of E. Coli” value in experiment [2] was 78%. The “kill of the test microorganisms” value in experiment [2] (10% solution of pure sodium chloride) is “does not provide any significant kill”.

In the case of `O=S(=O)([O-])[O-].[K+].[K+]` [Potassium sulfate], in experiment [2], the “% Kill of E. Coli” value is 34% and the “kill of E. coli by solution containing only the salt” value is on record as “no bacterial kill”.

Turning to “fatty alkanolaminde [25 ppm fatty alkanolaminde]”, the L. mono count in experiment [1] is reported as under 10 cfu/mL.

Take “sodium olefin sulfonate [12.5 ppm sodium olefin sulfonate]”: in experiment [1], the L. mono count was 110 cfu/mL.

In the case of alpha-olefin sulfonate, in experiment [3] (setting [5]), the “L. monocytogenes, Time 4 Hours” value came out at 0 CFU/ml and the “L. monocytogenes, Time 0” value is 370 CFU/ml.

Consider lauramine oxide, for which, in experiment [3] (setting [5]), the “L. monocytogenes, Time 4 Hours” value was 0 CFU/ml and the “L. monocytogenes, Time 0” value was found to be 2 CFU/ml.

`CC(=O)[O-].[Na+]` [20% Sodium Acetate, Sodium Acetate, reference compound]: the L. mono count in experiment [4] (setting [6]) is 3.0 × 10^4 cfu/mL.

Consider nonylphenol ethoxylate, for which, in experiment [3] (setting [5]), the “L. monocytogenes, Time 4 Hours” value came to 0 CFU/ml and the “L. monocytogenes, Time 0” value is reported as 460 CFU/ml.

For the compound `[Cl-].[Na+]` [Salt control, reference compound], the “L. monocytogenes, Time 4 Hours” value in experiment [3] (˜17% solution of NaCl, 100 ppm SLS and listed acid to pH ˜3.6) was found to be 1380 CFU/ml. Also, the “L. monocytogenes, Time 0” value in experiment [3] (˜17% solution of NaCl, 100 ppm SLS and listed acid to pH ˜3.6, MOX TAL) is listed as 850 CFU/ml.

With fatty alkanolamide, in experiment [3] (setting [5]), the “L. monocytogenes, Time 4 Hours” value turned out to be 0 CFU/ml and the “L. monocytogenes, Time 0” value was determined as 470 CFU/ml.

In experiment [1], “sodium olefin sulfonate [25 ppm sodium olefin sulfonate]” registered a L. mono count of 60 cfu/mL.

Take dodecyl diphenyl oxide disulfonate: in experiment [3] (setting [5]), the “L. monocytogenes, Time 4 Hours” value is listed as 0 CFU/ml and the “L. monocytogenes, Time 0” value came out at 0 CFU/ml.

As for `[Cl-].[Na+]` [20% NaCl (control), sodium chloride, reference compound], the results for the L. mono count in experiment [4] (Table 1) and in experiment [4] (setting [6]) were 1.0 × 10^5 cfu/mL and 4.0 × 10^5 cfu/mL, respectively. For the same compound, in experiment [3], the “Population at 4 hours” value worked out at 4.32 log cfu/mL.

`O=S(=O)([O-])[O-].[Mg+2]` [Magnesium sulfate]: in experiment [2], the “% Kill of E. Coli” value is 93% and the “kill of E. coli by solution containing only the salt” value is 10%.

Take `O=C[O-].[Na+]` [20% Sodium Formate, Sodium Formate, reference compound]: in experiment [4] (setting [6]), the L. mono count is given as 3.6 × 10^5 cfu/mL.

Regarding `O=S(=O)([O-])[O-].[Na+].[Na+]` [Sodium sulfate], in experiment [2], the “% Kill of E. Coli” value stood at 87% and the “kill of E. coli by solution containing only the salt” value is given as “no bacterial kill”.

Consider “C12(branched) sodium diphenyl oxide disulfonate”, for which the L. mono count in experiment [4] (setting [6]) is reported as 3.1 × 10^4 cfu/mL.

In turn, “nonylphenol ethoxylate [25 ppm nonylphenol ethoxylate]” displayed a L. mono count in experiment [1] of under 10 cfu/mL.

Take `CC(=O)[O-].[K+]` [20% Potassium Acetate, Potassium Acetate, reference compound]: the L. mono count in experiment [4] (setting [6]) was 4.2 × 10^5 cfu/mL.

Regarding “sulfonated oleic acid, Na salt [50 ppm sulfonated oleic acid, Na salt]”, the L. mono count in experiment [4] (Table 1) is reported as 1.3 × 10^5 cfu/mL.

Regarding sodium xylene sulfonate, in experiment [3] (setting [5]), the “L. monocytogenes, Time 4 Hours” value is recorded as 820 CFU/ml and the “L. monocytogenes, Time 0” value came out at 910 CFU/ml.

Take “alkyl polyglucoside [50 ppm alkyl polyglucoside]”: the L. mono count in experiment [4] (Table 1) was 9.6 × 10^4 cfu/mL.

Take `CCCCCCCCCCCCOS(=O)(=O)[O-].[Na+]` [50 ppm SLS (no NaCl), sodium lauryl sulfate]: in experiment [3], the “Population at 4 hours” value was 3.90* log cfu/mL.

“sodium linear alkylbenzene [25 ppm sodium linear alkylbenzene]” came in with a L. mono count in experiment [1] of under 10 cfu/mL.

Turning to sodium salt of sulfonated oleic acid, in experiment [3] (setting [5]), the “L. monocytogenes, Time 4 Hours” value came to 0 CFU/ml and the “L. monocytogenes, Time 0” value stood at 240 CFU/ml.

Take `[Cl-].[Cl-].[Mg+2]` [Magnesium chloride]: in experiment [2], the “% Kill of E. Coli” value came out at 56% and the “kill of E. coli by solution containing only the salt” value is recorded as 61%.

For sodium linear alkyl-benzene sulfonate, in experiment [3] (setting [5]), the “L. monocytogenes, Time 4 Hours” value was 0 CFU/ml and the “L. monocytogenes, Time 0” value was 490 CFU/ml.

Turning to “polyoxyethylene-polyoxypropylene block polymer”, in experiment [3] (setting [5]), the “L. monocytogenes, Time 4 Hours” value came out at 610 CFU/ml and the “L. monocytogenes, Time 0” value was determined as 820 CFU/ml.

Turning to alkylpolyglucoside, in experiment [3] (setting [5]), the “L. monocytogenes, Time 4 Hours” value is 0 CFU/ml and the “L. monocytogenes, Time 0” value was 280 CFU/ml.

On to `[Ca+2].[Cl-].[Cl-]` [Calcium chloride], for which, in experiment [2], the “% Kill of E. Coli” value is on record as 55% and the “kill of E. coli by solution containing only the salt” value was found to be 26%.
